According to patent publication US20240358711A1, “COMPOUNDS FOR NEUTROPHIL ROS INHIBITION” (IMMUNYX PHARMA LTD., priority 2021, published 2024):
Counter-ions that a name gives are not always drawn. Like-named read-outs stand apart in the source and are kept apart here.

Assays:
mouse neutrophils = test: ROS inhibition in mouse neutrophils; assay type: cell-based; conditions: average of several experiments; for <90% ROS Inhibition: concentration
Excerpt: (§1) PMA was again used to stimulate ROS production in neutrophils and the effects of the drugs were monitored at increasing concentration levels.

human neutrophils [1] = test: ROS production by PMA-stimulated purified human neutrophils; assay type: cell-based; conditions: for ROS production in the presence of PMA: 10 uM concentration; for ROS production in the presence of PMA / IC50 / <90% ROS Inhibition: human neutrophils; for IC50 / <90% ROS Inhibition: PMA stimulated, average of several experiments; for IC50: read-out: ROS Inhibition IC50; for ROS inhibitor effectiveness over 100 nm to 10 uM: PMA stimulated human neutrophils; for <90% ROS Inhibition: concentration
Protocol: Following blood withdrawal, blood was overlaid on 3% dextran in 0.9% NaCl in a 1:1 ratio and left at RT for 25 min to allow erythrocyte sedimentation. Residual RBCs were lysed by adding water for 30 sec and stopped by adding 2.5% BSA/5×PBS. WBCs were then diluted in 0.5% BSA/1×PBS and total number of cells was counted. Purification of pure neutrophils (HDNs) was done by overlaying blood after RBC sedimentation in a 1:1 ratio on Histopaque-1077. After 30 min centrifugation at 400 g, pure neutrophils were found at the bottom of the tube (pellet). Mononuclear cells (LDF—low density fraction) settle between the Histopaque-1077 and the 0.9% saline.
(§2) A high-throughput screen was performed to find molecules that inhibit ROS production by neutrophils. Extracted human neutrophils were purified and kept in culture. The cells were then exposed to various drugs and ROS production was monitored over time. Compounds that also scavenged hydrogen peroxide (H2O2) and/or lowered neutrophil ATP levels (reflecting toxicity) were removed. The top hits from the screen were selected for further analysis.
Neutrophils not exposed to PMA were used as a negative control and neutrophils exposed to only PMA were used as a positive control.
as §1

human neutrophils [2] = test: High-throughput screen for molecules that inhibit ROS production by neutrophils (PMA and fMLP stimulation); assay type: cell-based
Protocol: as §2, with “analysis. 160 basal hits were tested for their ability to inhibit neutrophil ROS production. 64 molecules were able to inhibit ROS production in the presence of PMA activation. 67 molecules were able to inhibit ROS production in the presence of N-Formylmethionine-leucyl-phenylalanine (fMLP). Of those 47 molecules were able to inhibit ROS production by both stimulation methods.” for “analysis.”

[3] = test system: whole blood samples from healthy human subjects; test: ROS levels in whole blood samples from healthy human subjects, without or with PMA; assay type: cell-based; conditions: for reduction in ROS in whole blood treated with PMA: higher dose (5 uM)
Protocol: A high and low concentration were tested for each compound. […] Next, the compounds were tested on whole blood treated with PMA.

[4] = test system: neutrophils isolated from blood; test: Neutrophil survival by FACS (Annexin V and PI double positive = dead); assay type: cell-based; conditions: 2 hours culture, drugs at 1 uM
Protocol: To test this hypothesis, neutrophils isolated from blood were cultured with the various drugs (concentration 1 uM) for 2 hours and then neutrophil survival was monitored by FACS. Cells that were double positive for Anexin V staining and PI staining were considered dead.

[5] = Circulating ALT levels in mice after drug administration; assay type: in vivo, mouse; conditions: 48 hours after drug administration
Protocol: One of the benefits of targeting of these drugs directly to neutrophils is to decrease their unwanted side effects. As mentioned early, many of these compounds have known side effects with respect to neutrophil differentiation in the bone marrow. Targeting to mature neutrophils decreases this unwanted side effect. To test if side effects are indeed decreased liver enzyme levels were measured in the mice after administration of free Stelazine and neutrophil targeted Stelazine. […] It is thus clear that neutrophil targeting is particularly beneficial for the selected compounds.

LPS treated mice = test: ROS in the lungs of LPS treated mice (lung inflammation model); assay type: in vivo, mouse
Protocol: (5B) Bar graph of relative ROS levels in the lungs of LPS treated mice, LPS treated mice administered free Stelazine, Stelazine loaded naked liposomes and Stelazine loaded targeting-peptide decorated liposomes. (5C) Images of ROS levels in LPS treated lungs administered various compositions of Stelazine and/or naked or peptide-decorated liposomes (referred to as “TENN”). 4 hours following treatment with the described molecules, animals were injected with luminol and ROS in the lungs was quantified using IVIS.
Mice were given 150 ug LPS by inhalation and left for 2 days. […] The LPS was inhaled on Day 0, and then the dosing of the drugs was performed in the evening of day 1 and the morning of day 2. Three different formulations of Stelazine were tested by IV administration: free Stelazine administered in PBS, Stelazine loaded into liposomes in PBS, and Stelazine loaded into liposomes decorated with neutrophil targeting peptides in PBS.

| SMILES | IC50 (mouse neutrophils; Neutrophil) [µM] | <90% ROS Inhibition (mouse neutrophils) [µM] | ROS production in the presence of PMA (human neutrophils [1]) | IC50 (human neutrophils [1]; Neutrophil) [µM] | <90% ROS Inhibition (human neutrophils [1]) [µM] | further results |
| --- | --- | --- | --- | --- | --- | --- |
| CCN1CCN(Cc2ccc(Nc3ncc(F)c(-c4cc(F)c5nc(C)n(C(C)C)c5c4)n3)nc2)CC1 [Abemaciclib] | 1.5 | 5 | more effective | 1 | 2 | ROS inhibitor effectiveness over 100 nm to 10 uM (human neutrophils [1]): most effective ROS inhibitors |
| CN(C)C/C=C/C(=O)Nc1cc2c(Nc3ccc(F)c(Cl)c3)ncnc2cc1O[C@H]1CCOC1 [Afatanib Maleate, Afatinib Maleate] | 2.5 | 8 |  |  |  |  |
| CN(C)C/C=C/C(=O)Nc1cc2c(Nc3ccc(F)c(Cl)c3)ncnc2cc1O[C@H]1CCOC1 [Afatinib] |  |  | more modest reduction | 4 | 9 |  |
| CN(C)CCC=C1c2ccccc2CCc2ccccc21 [Amitriptyline] |  |  |  |  |  | ROS inhibition in the screen (human neutrophils [2]): inhibited ROS production |
| COc1cc(Nc2c(C#N)cnc3cc(OCCCN4CCN(C)CC4)c(OC)cc23)c(Cl)cc1Cl [Bosutinib] | 0.15 | 1.5 | more effective | 0.2 | 0.75 | ROS inhibitor effectiveness over 100 nm to 10 uM (human neutrophils [1]): most effective ROS inhibitors; ROS inhibition in whole blood treated with PMA ([3]; 1 uM): this inhibition was quickly lost; ROS inhibition in whole blood treated with PMA ([3]; 5 uM): highly effective at ROS inhibition |
| CN(C)CCCN1c2ccccc2CCc2ccc(Cl)cc21 [Clomipramine] |  | 7 | more effective |  | 5 | ROS inhibitor effectiveness over 100 nm to 10 uM (human neutrophils [1]): most effective ROS inhibitors; ROS inhibition in whole blood treated with PMA ([3]; 5 uM): less strong effect; reduction in ROS in whole blood treated with PMA [3]: > 50% |
| CCCCOc1ccc(C(=O)CCN2CCCCC2)cc1 [Dyclonine] | 2 | 5 |  | 2.5 | 7 | ROS levels relative to unstimulated neutrophils (human neutrophils [1]; 10 μM): 44 % of negative control cells |
| CC(C)(C)C(=O)/C(=C\c1cccc([N+](=O)[O-])c1)n1cncn1 [Nexinhib] |  |  |  |  | 5 | IC50 (mouse neutrophils): 8 µM; IC50 (human neutrophils [1]): 1.5 µM; ROS inhibition in whole blood treated with PMA ([3]; 5 uM): less strong effect; reduction in ROS in whole blood treated with PMA [3]: > 50% |
| COC(=O)C1=C(C)NC(C)=C(C(=O)OCC(C)C)C1c1ccccc1[N+](=O)[O-] (centres unmarked) [Nisoldipine] |  |  | more modest reduction |  |  |  |
| CCCCCCCCCCCCCC(=O)O[C@@H]1[C@@H](C)[C@@]2(O)[C@@H](C=C(CO)C[C@]3(O)C(=O)C(C)=C[C@@H]23)[C@@H]2C(C)(C)[C@]12OC(C)=O [PMA, Phorbol 12-myristate 13-acetate] |  |  |  |  |  | increase in cell death as compared to control [4]: ~50% |
| CC(=O)c1c(C)c2cnc(Nc3ccc(N4CCNCC4)cn3)nc2n(C2CCCC2)c1=O [Palbociclib] |  |  | strongly reduced ROS production |  |  |  |
| CN(C)C(=O)c1cc2cnc(Nc3ccc(N4CCNCC4)cn3)nc2n1C1CCCC1 [Ribociclib] |  |  | more modest reduction |  |  |  |
| CC(C)(C)C(=O)Oc1ccc(S(=O)(=O)Nc2ccccc2C(=O)NCC(=O)O)cc1 [Sivelestat] |  |  |  |  |  | increase in cell death as compared to control [4]: < 6% |
| CN1CCN(CCCN2c3ccccc3Sc3ccc(C(F)(F)F)cc32)CC1 [Stelazine, Trifluoperazine] | 2.5 | 4 | more effective | 1 | 4 | alanine aminotransferase (ALT) levels in the blood [5]: increased alanine aminotransferase (ALT) levels in the blood; ROS inhibitor effectiveness over 100 nm to 10 uM (human neutrophils [1]): most effective ROS inhibitors; ROS levels in LPS treated lungs, luminol/IVIS imaging (LPS treated mice; 4 hours following treatment): had an effect on ROS levels; reduction in ROS in the lungs as compared to the untreated control (LPS treated mice; IV, 48 hours after LPS administration): ~50% |
